Square brackets hold non-standard residues; d marks the D form. Peptide text beside a SMILES is read from it. * marks the point of attachment. OAll = C=CCO*

This note sets out measurements from US7199100B2, “Cyclic peptides, method for preparing and use as angiogenesis inhibitors or activator” (Commissariat a l'Energie Atomique, priority 2000, dated 2007).

T1 sequence (P35968 20-1356, species assumed): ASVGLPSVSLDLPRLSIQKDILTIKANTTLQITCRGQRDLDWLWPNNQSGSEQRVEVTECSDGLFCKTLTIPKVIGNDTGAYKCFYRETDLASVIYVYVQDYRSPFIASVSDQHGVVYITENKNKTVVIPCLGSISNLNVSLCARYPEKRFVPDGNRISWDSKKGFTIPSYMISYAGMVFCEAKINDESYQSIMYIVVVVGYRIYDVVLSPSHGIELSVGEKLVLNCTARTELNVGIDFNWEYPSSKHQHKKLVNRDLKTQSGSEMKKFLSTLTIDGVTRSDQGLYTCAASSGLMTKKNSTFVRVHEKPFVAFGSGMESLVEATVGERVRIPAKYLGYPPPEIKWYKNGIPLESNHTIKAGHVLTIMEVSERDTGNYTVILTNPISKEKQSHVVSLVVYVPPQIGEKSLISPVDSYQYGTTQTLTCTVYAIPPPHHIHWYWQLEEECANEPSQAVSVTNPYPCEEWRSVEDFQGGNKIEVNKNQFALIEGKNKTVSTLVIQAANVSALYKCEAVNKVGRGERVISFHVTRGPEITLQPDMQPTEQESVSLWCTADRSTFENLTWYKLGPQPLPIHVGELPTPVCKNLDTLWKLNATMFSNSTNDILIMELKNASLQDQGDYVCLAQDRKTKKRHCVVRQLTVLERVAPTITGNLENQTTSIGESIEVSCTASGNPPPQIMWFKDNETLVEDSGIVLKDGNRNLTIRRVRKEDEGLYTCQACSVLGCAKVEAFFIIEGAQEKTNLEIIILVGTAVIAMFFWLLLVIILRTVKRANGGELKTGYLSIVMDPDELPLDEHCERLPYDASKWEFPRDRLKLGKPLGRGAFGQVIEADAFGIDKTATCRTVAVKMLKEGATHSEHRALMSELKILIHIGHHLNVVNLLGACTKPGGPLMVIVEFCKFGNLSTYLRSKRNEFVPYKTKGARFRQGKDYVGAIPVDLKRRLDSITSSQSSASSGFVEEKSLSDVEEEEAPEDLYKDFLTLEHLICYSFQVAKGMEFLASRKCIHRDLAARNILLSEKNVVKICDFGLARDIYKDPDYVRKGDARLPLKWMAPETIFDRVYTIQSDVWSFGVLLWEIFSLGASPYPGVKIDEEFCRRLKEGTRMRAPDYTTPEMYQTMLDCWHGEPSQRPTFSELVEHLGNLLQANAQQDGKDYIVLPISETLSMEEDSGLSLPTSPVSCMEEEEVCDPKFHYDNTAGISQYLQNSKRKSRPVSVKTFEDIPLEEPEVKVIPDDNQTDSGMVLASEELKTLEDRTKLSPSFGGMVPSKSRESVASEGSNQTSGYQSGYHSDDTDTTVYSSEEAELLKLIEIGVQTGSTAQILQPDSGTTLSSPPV

The first experiment addresses T1, KDR receptor (VEGFR2) (Homo sapiens, UniProt P35968).
T1 construct: expressed in transfected cells; host or cells: heparan sulfate deficient Chinese hamster ovary cells (CHOm VEGFR2), VEGFR2 cDNA in psV-7d vector
The experiment in a line: Inhibition of 125I-VEGF binding to KDR receptor on CHOm VEGFR2 cells.
Conditions: not given
Here is the method: The P1 to P24 peptides are tested as concerns their property of inhibition of the binding of VEGF to its KDR receptor.
For these tests, heparin sulfate deficient Chinese hamster ovarian cells that are transfected with an expression vector containing VEGFR2cDnA (CHOm VEGFR2 cells) are used.
The CHOm VEGFR2 cells are routinely cultured in Dulbecco modified Eagle medium and supplemented with 10% (v/v) fetal calf serum (FCS), 50 U/ml penicillin, 50 μg/ml streptomycin, 1 mg/ml glucose and 2 mM L-glutamine at 37° C. in a 5% CO2 atmosphere.
The subconfluent flasks are transferred at 4° C. […] At the end of the incubation period, the cells are washed 3 times using iced PBS and solubized in 1 mL of buffer with 2% Triton X 100, 10% glycol, 1 mg/mL bovine serum albumin BSA. The radioactivity rate bound to the cells is counted in an MR-250 Kontron gamma counter. […] Specific binding is calculated by subtracting non-specific binding from total binding.
These assays are continued using the cyclopeptides of interest and two linear peptides as controls for an inhibition analysis as a function of dose.
For `CC[C@H](C)[C@H](NC(=O)[C@H](CCCNC(=N)N)NC(=O)CN)C(=O)N[C@@H](CCCCN)C(=O)N1CCC[C@@H]1C(=O)N[C@@H](Cc1c[nH]cn1)C(=O)N[C@@H](CCC(N)=O)C(=O)NCC(=O)N[C@@H](CCC(N)=O)C(=O)N[C@@H](Cc1c[nH]cn1)C(=O)O` [Peptide P6, H-Gly-Arg-Ile-Lys-DPro-His-Gln-Gly-Gln-His-OH] (H-GRIK[dP]HQGQH-OH), the IC50 is greater than 300 µM.
Still for that read-out and setting: the same measure for `CC[C@H](C)[C@@H]1NC(=O)[C@H](CCCNC(=N)N)NC(=O)CNC(=O)[C@H](Cc2c[nH]cn2)NC(=O)[C@H](CCC(N)=O)NC(=O)CNC(=O)[C@H](CCC(N)=O)NC(=O)[C@H](Cc2c[nH]cn2)NC(=O)[C@H]2CCCN2C(=O)[C@H](CCCCN)NC1=O` [Peptide P7, cyclo(Gly-Arg-Ile-Lys-DPro-His-Gln-Gly-Gln-His)] (cyclo(GQHGRIK[dP]HQ)): greater than 300 µM; for `CC[C@H](C)[C@@H]1NC(=O)[C@H](CCCNC(=N)N)NC(=O)[C@@H]2CCCN2C(=O)[C@H](Cc2c[nH]cn2)NC(=O)[C@H](CCC(N)=O)NC(=O)CNC(=O)[C@H](CCC(N)=O)NC(=O)[C@H](Cc2c[nH]cn2)NC(=O)[C@@H]2CCCN2C(=O)[C@H](CCCCN)NC1=O` [Peptide P9] (cyclo(GQHPRIKPHQ)): 300 µM.
The same measure, in the same setting: the same measure for `C=CCOC(=O)[C@H](CCC(=O)O)NC(=O)CNC(=O)[C@@H](NC(=O)[C@H](Cc1c[nH]cn1)NC(=O)[C@H](CCC(N)=O)NC(=O)CNC(=O)[C@H](CCC(N)=O)NC(=O)[C@H](Cc1c[nH]cn1)NC(=O)[C@@H]1CCCN1C(=O)[C@H](CCCCN)NC(=O)[C@@H](NC(=O)[C@H](CCCNC(=N)N)NC(=O)[C@H](CCSC)NC(=O)[C@@H](NC(=O)[C@@H](N)CCC(N)=O)[C@@H](C)CC)[C@@H](C)CC)[C@@H](C)CC` [Peptide P10] (H-QIMRIKPHQGQHIGE-OAll): greater than 300 µM; for `CC[C@H](C)[C@@H]1NC(=O)[C@H](Cc2c[nH]cn2)NC(=O)[C@H](CCC(N)=O)NC(=O)CNC(=O)[C@H](CCC(N)=O)NC(=O)[C@H](Cc2c[nH]cn2)NC(=O)[C@@H]2CCCN2C(=O)[C@H](CCCCN)NC(=O)[C@H]([C@@H](C)CC)NC(=O)[C@H](CCCNC(=N)N)NC(=O)[C@H](CCSC)NC(=O)[C@H]([C@@H](C)CC)NC(=O)[C@H](CCC(N)=O)NC(=O)CNC(=O)[C@H](CCC(=O)O)NC(=O)CNC1=O` [Peptide P12] (cyclo(EGQIMRIKPHQGQHIG)): 300 µM; for `CC[C@H](C)[C@@H]1NC(=O)[C@H](Cc2c[nH]cn2)NC(=O)[C@H](CCC(N)=O)NC(=O)CNC(=O)[C@H](CCC(N)=O)NC(=O)[C@H](Cc2c[nH]cn2)NC(=O)[C@@H]2CCCN2C(=O)[C@H](CCCCN)NC(=O)[C@H]([C@@H](C)CC)NC(=O)[C@H](CCCNC(=N)N)NC(=O)[C@H](CCSC)NC(=O)[C@H]([C@@H](C)CC)NC(=O)[C@H](CCC(N)=O)NC(=O)[C@@H]2CCCN2C(=O)[C@H](CCC(=O)O)NC(=O)CNC1=O` [Peptide P13] (cyclo(EPQIMRIKPHQGQHIG)): greater than 300 µM.
Take `CC[C@H](C)[C@@H]1NC(=O)[C@H](CCCNC(=N)N)NC(=O)[C@@H]2CCCN2C(=O)CNC(=O)[C@H](CCC(N)=O)NC(=O)[C@H](Cc2c[nH]cn2)NC(=O)[C@@H]2CCCN2C(=O)[C@H](CCCCN)NC1=O` [Peptide P17] (cyclo(PRIKPHQG)): the concentration for half-maximal inhibition (IC50) was 10 µM. In other words, the double-digit micromolar range.
Same read-out and setting: the same measure for `CC[C@H](C)[C@@H]1NC(=O)[C@H](Cc2c[nH]cn2)NC(=O)[C@H](CCC(N)=O)NC(=O)CNC(=O)[C@H](CCC(N)=O)NC(=O)[C@H](Cc2c[nH]cn2)NC(=O)[C@@H]2CCCN2C(=O)[C@H](CCCCN)NC(=O)[C@H]([C@@H](C)CC)NC(=O)[C@H](CCCNC(=N)N)NC(=O)[C@H](CCSC)NC(=O)[C@H]([C@@H](C)CC)NC(=O)[C@H](CCC(N)=O)NC(=O)[C@@H]2CCCN2C(=O)[C@@H](Cc2ccccc2)NC(=O)CNC1=O` [Peptide P20] (cyclo([dF]PQIMRIKPHQGQHIG)): 10 µM; for `CC[C@H](C)[C@@H]1NC(=O)[C@H](CCCNC(=N)N)NC(=O)[C@H](CCSC)NC(=O)[C@H]([C@@H](C)CC)NC(=O)[C@@H]2CCCN2C(=O)[C@@H](Cc2ccccc2)NC(=O)[C@H]([C@@H](C)CC)NC(=O)[C@H](Cc2c[nH]cn2)NC(=O)[C@H](CCC(N)=O)NC(=O)CNC(=O)[C@H](CCC(N)=O)NC(=O)[C@H](Cc2c[nH]cn2)NC(=O)[C@@H]2CCCN2C(=O)[C@H](CCCCN)NC1=O` [Peptide P21] (cyclo(GQHI[dF]PIMRIKPHQ)): 200 µM; for `CC[C@H](C)[C@@H]1NC(=O)[C@H](CCC(N)=O)NC(=O)[C@H](CCC(=O)O)NC(=O)[C@H](CCC(N)=O)NC(=O)[C@H](Cc2c[nH]cn2)NC(=O)[C@@H]2CCCN2C(=O)[C@H](CCCCN)NC(=O)[C@H]([C@@H](C)CC)NC(=O)[C@H](CCCNC(=N)N)NC(=O)[C@H](CCSC)NC1=O` [Peptide P22, reference compound] (cyclo(EQIMRIKPHQ)): greater than 300 µM.
As for H-GQIMRIKPHQGQHIGE-OH [Peptide P15], the IC50 was greater than 300 µM.
Take H-PQIMRIKPHQGQHIGE-OH [Peptide P14]: the IC50 is greater than 300 µM.
Same read-out and setting: the result for H-QIMRIKPH-OH [Peptide P2] reads greater than 300 µM; that for H-QIMRIKPHQGQHIG-OH [Peptide P5], greater than 300 µM; that for H-QIMRIKPHQGQHIGE-OH [Peptide P4], greater than 300 µM.

The experiment is the same for the next values; noted with them: CHOm VEGFR2 cells, 5 ng/mL 125I-VEGF, 2 hours at 4° C.
As to `CC[C@H](C)[C@@H]1NC(=O)[C@H](CCCNC(=N)N)NC(=O)CNC(=O)[C@H](Cc2c[nH]cn2)NC(=O)CNC(=O)[C@H](CCC(N)=O)NC(=O)[C@H](Cc2c[nH]cn2)NC(=O)[C@@H]2CCCN2C(=O)[C@H](CCCCN)NC1=O` [Peptide P8] (cyclo(GRIKPHQGH)), the half-inhibitory concentration (IC50) was 200 µM.
With `CC[C@H](C)[C@@H]1NC(=O)[C@H](CCCNC(=N)N)NC(=O)CNC(=O)[C@H](Cc2c[nH]cn2)NC(=O)[C@@H]2CCCN2C(=O)[C@H](CCCCN)NC1=O` [Peptide P24, cyclo(Gly-Arg-Ile-Lys-Pro-His)] (cyclo(GRIKPH)), the IC50 worked out at 8 µM.

Staying with this experiment, now noted: CHOm VEGFR2 cells, 125I-VEGF.
In the case of `CC[C@H](C)[C@@H]1NC(=O)[C@H](CCCNC(=N)N)NC(=O)CNC(=O)[C@H](CCC(N)=O)NC(=O)[C@H](Cc2c[nH]cn2)NC(=O)[C@@H]2CCCN2C(=O)[C@H](CCCCN)NC1=O` [Peptide P16, cyclo(Arg-Ile-Lys-Pro-His-Gln-Gly)] (cyclo(RIKPHQG)), the “inhibiting binding of VEGF to the KDR receptor (in words)” value (from here on “inhibiting binding of VEGF”) is listed as “very effective”.
The same measure, in the same setting: the same measure for `CC[C@H](C)[C@@H]1NC(=O)[C@H](CCCNC(=N)N)NC(=O)[C@@H]2CCCN2C(=O)CNC(=O)[C@H](CCC(N)=O)NC(=O)[C@H](Cc2c[nH]cn2)NC(=O)[C@@H]2CCCN2C(=O)[C@H](CCCCN)NC1=O` [Peptide P17] (cyclo(PRIKPHQG)): “very effective”; for `CC[C@H](C)[C@@H]1NC(=O)[C@H](Cc2c[nH]cn2)NC(=O)[C@H](CCC(N)=O)NC(=O)CNC(=O)[C@H](CCC(N)=O)NC(=O)[C@H](Cc2c[nH]cn2)NC(=O)[C@@H]2CCCN2C(=O)[C@H](CCCCN)NC(=O)[C@H]([C@@H](C)CC)NC(=O)[C@H](CCCNC(=N)N)NC(=O)[C@H](CCSC)NC(=O)[C@H]([C@@H](C)CC)NC(=O)[C@H](CCC(N)=O)NC(=O)[C@H](CCC(=O)O)NC(=O)CNC1=O` [Peptide P19] (cyclo(QIMRIKPHQGQHIGE)): “very effective”; for `CC[C@H](C)[C@@H]1NC(=O)[C@H](Cc2c[nH]cn2)NC(=O)[C@H](CCC(N)=O)NC(=O)CNC(=O)[C@H](CCC(N)=O)NC(=O)[C@H](Cc2c[nH]cn2)NC(=O)[C@@H]2CCCN2C(=O)[C@H](CCCCN)NC(=O)[C@H]([C@@H](C)CC)NC(=O)[C@H](CCCNC(=N)N)NC(=O)[C@H](CCSC)NC(=O)[C@H]([C@@H](C)CC)NC(=O)[C@H](CCC(N)=O)NC(=O)[C@@H]2CCCN2C(=O)[C@@H](Cc2ccccc2)NC(=O)CNC1=O` [Peptide P20] (cyclo([dF]PQIMRIKPHQGQHIG)): “very effective”.
Turning to `CC[C@H](C)[C@@H]1NC(=O)[C@H](CCCNC(=N)N)NC(=O)[C@@H]2CCCN2C(=O)[C@@H](Cc2ccc(O)cc2)NC(=O)[C@H](CCC(N)=O)NC(=O)[C@H](Cc2c[nH]cn2)NC(=O)[C@@H]2CCCN2C(=O)[C@H](CCCCN)NC1=O` [Peptide P23] (cyclo([dY]PRIKPHQ)), the “inhibiting binding of VEGF” value was “very effective”.
Turning to `CC[C@H](C)[C@@H]1NC(=O)[C@H](CCCNC(=N)N)NC(=O)CNC(=O)[C@H](Cc2c[nH]cn2)NC(=O)[C@@H]2CCCN2C(=O)[C@H](CCCCN)NC1=O` [Peptide P24, cyclo(Gly-Arg-Ile-Lys-Pro-His)] (cyclo(GRIKPH)), the “inhibiting binding of VEGF” value is on record as “very effective”.
